Measurements as given in US20150320748A1, “AGENT FOR INHIBITING EXPRESSION OF LIPID METABOLISM RELATED MRNA” (KOWA CO., LTD., priority 2011, published 2015).

Columns and labels:
[1] = biological target: T1, cholesterol ester transfer protein (CETP) (Homo sapiens, UniProt P11597); experiment: CETP inhibitory effect; format: biochemical; details: no method or values printed
T1 sequence (P11597 18-493): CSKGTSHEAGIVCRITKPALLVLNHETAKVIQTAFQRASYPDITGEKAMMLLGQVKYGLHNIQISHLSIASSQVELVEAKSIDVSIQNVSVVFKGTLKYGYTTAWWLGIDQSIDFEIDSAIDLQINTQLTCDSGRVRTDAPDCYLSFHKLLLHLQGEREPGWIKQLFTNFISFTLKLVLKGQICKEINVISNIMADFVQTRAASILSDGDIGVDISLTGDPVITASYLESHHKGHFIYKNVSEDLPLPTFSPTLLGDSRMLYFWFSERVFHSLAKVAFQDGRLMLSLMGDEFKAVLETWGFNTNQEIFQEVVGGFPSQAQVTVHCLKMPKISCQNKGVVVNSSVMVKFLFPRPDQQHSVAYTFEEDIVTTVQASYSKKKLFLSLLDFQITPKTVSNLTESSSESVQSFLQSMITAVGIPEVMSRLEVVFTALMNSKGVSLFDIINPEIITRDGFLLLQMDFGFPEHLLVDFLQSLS

SREBP1c mRNA = experiment: Expression level of SREBP1c mRNA in HepG2 cells by real-time quantitative RT-PCR; format: cell-based, human; details: 0.1, 1, 10 mM DMSO solutions added at 1 to 1000, corrected by β-Actin mRNA, FIG. 2
Experimental: The test compound 2 was added to the HepG2 cells of human liver cancer cell line, cultured for 24 hours, and then the expression level of SREBP1c mRNA was measured by real-time quantitative RT-PCR. More specifically, the HepG2 cells were seeded on a 24-well plate at a concentration of 2×10^5 cells/well, and cultured overnight. The test compound 2 was dissolved in dimethyl sulf oxide (DMSO) at concentrations of 0.1 mM, 1 mM, and 10 mM, and added to the culture solution at the rate of 1 to 1000. The mixture was cultured for 8 hours in a CO2 incubator at 37° C., and then 500 μL of ISOGEN (Nippon Gene Co., Ltd., catalogue No. 31-02501) was added, and the total RNA was extracted. […] The expression level of human SREBP1c mRNA was measured using a TaqMan probe 5′-[sequence]-3′ (SEQ ID NO. 3), a sense primer: 5′-[sequence]-3′ (SEQ ID NO. 4), and an antisense primer 5′-[sequence]-3′ (SEQ ID NO. 5), which are specific to human SREBP1c, and TaqMan Fast Universal PCR Master Mix (Applied Biosystems, catalogue No. 4367846). […]
The measurement value was corrected by the expression level of β-Actin mRNA. The expression level of SREBP1c mRNA in the cells mixed with DMSO alone was set at 1, and the expression level of SREBP1c mRNA in the cells mixed with the test compound 2 was calculated as relative value.

SCD-1 mRNA = experiment: Expression level of SCD-1 mRNA in HepG2 cells by real-time quantitative RT-PCR; format: cell-based, human; details: 0.1, 1, 10 mM DMSO solutions added at 1 to 1000, corrected by β-Actin mRNA, FIG. 3
Experimental: More specifically, the HepG2 cells were seeded on a 24-well plate at a concentration of 2×10^5 cells/well, and cultured overnight. […] The mixture was cultured for 8 hours in a CO2 incubator at 37° C., and then 500 μL of ISOGEN (Nippon Gene Co., Ltd., catalogue No. 31-02501) was added, and the total RNA was extracted. From the extracted total RNA, cDNA was synthesized using High Capacity cDNA Reverse Transcription kit (Applied Biosystems, catalogue No. 4368813). The expression level of human SCD-1 was measured using a primer 5′-[sequence]-3′ (SEQ ID NO. 6), an antisense primer 5′-[sequence]-3′ (SEQ ID NO. 7), which are specific to human SCD-1, and Fast SYBR Green master mix (Applied Biosystems, catalogue No. 4385614). The measurement instrument was 7900HT Fast Realtime PCR system.
The measurement value was corrected by the expression level of β-Actin mRNA.

Row | Compound | CETP inhibitory effect (test compound 2 compared with Anacetrapib) [1] | decrease of the expression level of SREBP1c mRNA (relative value, DMSO alone = 1) (SREBP1c mRNA) | decrease of the expression level of SCD-1 mRNA (relative value, DMSO alone = 1) (SCD-1 mRNA)
1 | COc1cc(F)c(C(C)C)cc1-c1ccc(C(F)(F)F)cc1CN1C(=O)O[C@H](c2cc(C(F)(F)F)cc(C(F)(F)F)c2)[C@@H]1C [Anacetrapib, (4S,5R) -5-[3,5-bis(trifluoromethyl)phenyl]-3-({2-[4-fluoro-2-methoxy-5-(propane-2-yl)phenyl]-5-(trifluoromethyl)phenyl}methyl)-4-methyl-1,3-oxazolidine-2-one, reference compound] | equal | – | –
2 | CCN(C[C@H]1CC[C@H](CC(=O)O)CC1)c1ccc(C(F)(F)F)cc1CN(c1ncc(OCCS(C)(=O)=O)cn1)[C@@H](C)c1cc(C(F)(F)F)cc(C(F)(F)F)c1 [compound 2] | equal | evidently stronger than that of Anacetrapib | evidently stronger than that of Anacetrapib
